# Reference: publication PMC8536644, “Enigmatic mechanism of the N-vinylpyrrolidone hepatocarcinogenicity in the rat” (Archives of Toxicology, 2021)
# “And” between values parts separate entries of the source, which are not always exact repeats. Identical values can stand only once.
# Assays:
# [1] = system: human lymphocyte cultures; design: method as in MAK [1994]; conditions: ref MAK [1994]; cited from earlier work
# [2] = system: p53 transcription factor activity; design: method as in ToxCast (comptox.epa.gov dashboard); conditions: ref ToxCast (comptox.epa.gov dashboard); read-out: AC50 of the p53 transcription factor activity modulation; cited from earlier work
# Drosophila melanogaster = conditions: ref Knaap et al. [1985]; cited from earlier work
# (liver) DNA = system: (liver) DNA; design: method as in Inveresk Research International (IRI) [1986]; conditions: male CD rats, i.p. 14C-NVP 150 and 300 mg/kg; ref Inveresk Research International (IRI) [1986]; cited from earlier work
# [3] = design: method as in ToxCast (comptox.epa.gov dashboard); conditions: ref ToxCast (comptox.epa.gov dashboard); cited from earlier work
# BALB/3T3 cells = system: BALB/3T3 cells; design: method as in MAK [1994]; conditions: ref MAK [1994]; cited from earlier work
# rat lung cells [4] = test: Trypan Blue viability of the single cell suspension, lung; assay type: in vivo; conditions: lung, 5 days, individual animals
# rat lung cells [5] = test: Comet assay in presence of FPG, lung; conditions: with FPG, 5 days; for TI (%), mean of medians from 2 slides: individual animals
# Experimental: Animals were anesthetized by 3.5% isoflurane (approximately 3 min, evaporator Dräger Vapor 19.3) and then killed by cervical dislocation. The liver was removed and its left lateral lobe used for the Comet assay. The remainder of the liver was washed in saline and then in two aliquots shock frozen in liquid nitrogen and stored at − 80 °C for later examinations. Subsequently the lung was removed from the dead animal. Its left lobe was used for the Comet assay and the remainder treated as described above for the liver. Thereafter the femora were removed for the preparation of the bone marrow.
# The Comet assay was performed under alkaline conditions according to the principles described by Singh et al. ([1988]) and Tice et al. ([2000]).
# Liver and lung cells were obtained essentially as described by Hartmann et al. ([2004]) and by the Japanese Center for the Validation of Alternative Methods (JaCVAM [2009]). Single cells were obtained within 1 h after killing of the animals in order to minimize DNA damage during the preparation.
# The organ parts (see above) were washed in mincing buffer (50 mM EDTA in HBSS [without Ca^2+ and Mg^2+] pH 7.5: DMSO 9:1 (v/v), the latter added shortly before use, stored at 4 °C), cut into 1 to 2-mm pieces in ice-cold mincing buffer and transferred to a cell sieve with 70-µm pores. The viability of the cell suspension was evaluated by the Trypan Blue Assay (Strober [2001]).
# 100 µL of the obtained cell suspension was mixed at 37 °C with 900 µL Low Melting Agarose (LMA) (0.7% agarose in phosphate-buffered saline [PBS] [Biochrom, Berlin, Germany] without Ca^2+ and Mg^2+). 100 µL of this mixture was transferred to a slide, which had been coated with Normal Melting Agarose (NMA) (0.6% agarose in PBS without Ca^2+ and Mg^2+). The slides were protected with a cover slip and the agarose was hardened at approximately 4 °C. The cover slips were then removed and the slides put over night at 4 °C into lysis buffer (2.5 M NaCl, 125 mM NaOH, 127 mM EDTA, 10 mM Tris/NaOH, pH 10; 1% Triton X-100 and 10% DMSO (v/v), the latter two added before use) in order to lyse the cell membrane, nuclear membrane and remove the histone.
# The then following procedures were performed in a shaded room to minimize UV-mediated DNA damage during the procedures.
# Those slides which were destined to be treated with the DNA base excision repair enzyme FPG (Sigma Aldrich, Steinheim, Germany) were washed (3 times for 5 min) with FPG buffer (0.04 M HEPES, 0.5 mM EDTA, 0.1 M KCl, pH 8; add shortly before use bovine serum albumin [BSA] to a final concentration of 0.02%). Subsequently 50 µL FPG-enzyme-buffer (prepared shortly prior to use by 30-fold dilution of the following suspension in FPG buffer: 7 µL FPG-enzyme (14 U) and 70 µL glycerol in 623 µL FPG-Puffer, stored at − 80 °C) was pipetted on the slide which was covered with a cover slide and incubated for 30 min at 37 °C while being placed on a humid filter paper. After hardening of the agarose cover slips were removed.
# Remaining lysis buffer or FPG buffer was removed by immersing/washing the slides in PBS (without Ca^2+ and Mg^2+).
structure (smiles),measurement,setting,value
"C=CN1CCCC1=O [NVP, N-vinylpyrrolidone]",Chromosome aberration test result,[1],negative
same,AC50,[2],40 nM
same,Sex-linked recessive lethal test result,Drosophila melanogaster,negative
same,Binding of NVP or its metabolites to (liver) DNA,(liver) DNA,no binding
same,Active in vitro assays in ToxCast,[3],10 out of 847
same,BALB/3T3 cell transformation test result,BALB/3T3 cells,negative
same,Individual viability (%),"rat lung cells [4]; female, Comet with FPG (Table 11), 20 ppm inhalation",95%
same,Individual viability (%),"rat lung cells [4]; female, no FPG, 20 ppm inhalation",96%
same,Individual viability (%),"rat lung cells [4]; male, Comet with FPG (Table 10), 10 ppm inhalation",93%
same,Individual viability (%),"rat lung cells [4]; male, no FPG, 10 ppm inhalation",93%
same,Hedgehogs/100 cells (mean ± SD),"rat lung cells [5]; female, 5 ppm inhalation",3 ± 2 /100 cells
same,TI (%) (mean ± SD),"rat lung cells [5]; female, 5 ppm inhalation",7.8 ± 1.30%
same,"TI (%), mean of medians from 2 slides","rat lung cells [5]; female, 5 ppm inhalation",8.6% and 7.0% and 6.8% and 10.1% and 7.1% and 7.3%
same,Hedgehogs/100 cells (mean ± SD),"rat lung cells [5]; female, 10 ppm inhalation",1 ± 1 /100 cells
same,TI (%) (mean ± SD),"rat lung cells [5]; female, 10 ppm inhalation",7.2 ± 1.81%
same,"TI (%), mean of medians from 2 slides","rat lung cells [5]; female, 10 ppm inhalation",8.7% and 8.1% and 7.9% and 8.4% and 6.0% and 4.0%
same,Hedgehogs/100 cells (mean ± SD),"rat lung cells [5]; female, 20 ppm inhalation",3 ± 1 /100 cells
same,TI (%) (mean ± SD),"rat lung cells [5]; female, 20 ppm inhalation",7.4 ± 2.90%
same,"TI (%), mean of medians from 2 slides","rat lung cells [5]; female, 20 ppm inhalation",6.2% and 8.6% and 10.2% and 2.3% and 7.7% and 9.7%
same,Hedgehogs/100 cells (mean ± SD),"rat lung cells [5]; male, 5 ppm inhalation",2 ± 2 /100 cells
same,TI (%) (mean ± SD),"rat lung cells [5]; male, 5 ppm inhalation",6.4 ± 0.69%
same,"TI (%), mean of medians from 2 slides","rat lung cells [5]; male, 5 ppm inhalation",6.1% and 7.5% and 6.6% and 5.5% and 6.5%
same,Hedgehogs/100 cells (mean ± SD),"rat lung cells [5]; male, 10 ppm inhalation",4 ± 4 /100 cells
same,TI (%) (mean ± SD),"rat lung cells [5]; male, 10 ppm inhalation",7.9 ± 3.21%
same,"TI (%), mean of medians from 2 slides","rat lung cells [5]; male, 10 ppm inhalation",12.0% and 3.6% and 6.0% and 7.3% and 7.2% and 11.4%
same,Hedgehogs/100 cells (mean ± SD),"rat lung cells [5]; male, 20 ppm inhalation",1 ± 1 /100 cells
same,TI (%) (mean ± SD),"rat lung cells [5]; male, 20 ppm inhalation",3.9 ± 0.72%
same,"TI (%), mean of medians from 2 slides","rat lung cells [5]; male, 20 ppm inhalation",3.8% and 3.5% and 5.2% and 3.6% and 3.3% and 4.2%
